Measured values as given in PMC7529893, “Structural basis for substrate recognition and chemical inhibition of oncogenic MAGE ubiquitin ligases” (Nature Communications, 2020).
“Also recorded” adds a separate entry of the source.

Key:
[1] = system: MAGE-A11-knockout DAOY cells or those reconstituted with MAGE-A11; assay: Cell viability, alamarBlue, DAOY cells; format: cell-based
Description: To assess cell viability after SJ521054 treatment, 1 × 10^4 cells/ml were treated with SJ521054 (0–40 μM) and incubated for 24 h prior to changing the media and adding alamarBlue (Thermo Fisher Scientific) and incubating for 4 h at 37 °C. Plates were read by measuring the fluorescence with excitation wavelength at 540 nm and emission wavelength at 590 nm on an Enspire plate reader.

Caco-2 cells = assay: High throughput Caco-2 permeability; format: in vitro ADME
Description: High throughput Caco-2 permeability was performed in the TranswellR 0.4 µm polycarbonate membrane 96-well system with modified methods. Caco-2 cells were maintained at 37 °C in a humidified incubator with an atmosphere of 5% CO2. The cells were cultured in 75 cm^2 flasks with Dulbecco’s Modified Eagle’s Medium (DMEM) containing 10% (v/v) FBS, 1% (v/v) non-essential amino acids (NEAA), 100 units/ml of penicillin, and 100 µg/ml of streptomycin. The Caco-2 cells were seeded onto inserts at a density of 2 × 10^4 cells/insert separately. The medium in the wells was exchanged each other day, and the trans epithelial electrical resistance (TEER) value was measured using an epithelial voltohm meter (Millipore, Billerica, Massachusetts). […] For transport experiments, each cultured monolayer on the 96-well plate was washed twice with a transport buffer (HBSS containing 25 mM HEPES, pH 7.4). The permeability assay was initiated by the addition of each compound solution (10 µmol/l) into inserts (apical side, A) or receivers (basolateral side, B). The Caco-2 cell monolayers were incubated for 2 h at 37 °C. Fractions were collected from receivers (if apical to basal permeability) or inserts (if basal to apical permeability), and concentrations were assessed by UPLC/MS (Waters; Milford, MA). All compounds were tested in triplicates. The A → B (or B → A) apparent permeability coefficients (Papp) of each compound were calculated using the equation, Papp = dQ/dt × 1/AC0, where dQ/dt equals the flux of a drug across the monolayer, A equals the total insert well surface area, and C0 is the initial concentration of substrate in the donor compartment. The efflux ratio was determined by dividing the Papp in the B-A direction by the Papp in the A-B direction.

| Structure (SMILES) | cell viability ([1]; DAOY cells with MAGE-A11 against vector control, 0–40 μM, 24 h, listed as SJ521054) | cytotoxicity independent of MAGE-A11 ([1]; higher concentrations, both cell lines (DAOY and HEK293)) | cell permeability in words (Caco-2 cells) |
| --- | --- | --- | --- |
| FC(F)(F)c1ccc2c(NCCCNCc3ccc4[nH]ccc4c3)ccnc2c1 [SJ000521054-02] | reduces viability of MAGE-A11 expressing DAOY cancer cells; also recorded: decreased the viability of MAGE-A11 expressing DAOY and HEK293FT cells to a much greater extent than vector control MAGE-A11-negative cells | shows cytotoxicity to both cell lines |  |
| c1ccc2c(NCCCNCc3ccc4[nH]ccc4c3)ccnc2c1 [SJ001008066-01] |  |  | cell permeable |
